{"source": "patent US20050186290A1", "about": "“Use of aquaglyceroporin modulators as slimming agent” (L'OREAL, priority 2003, published 2005)", "format_in_all_cases": "cell-based, mice", "key": {"[1]": {"system": "differentiated 3T3-L1 cells", "experiment": "Fluorescence assay of glycerol released, Protocol 1 (without epinephrine)", "conditions": "for Release of glycerol: summary", "description": "(§1) The effects on the release of glycerol were tested in the presence of all the test products and using a fluorescence assay method. Glycerol was then assayed with regard to certain selected products using a calorimetric method and in the presence or the absence of HgCl2.\n(§2) The cells used were mice preadipocytes of the 3T3-L1 line (40 000 cells/well).\n(§3) The cells were cultured until confluency in a growth medium, with a change in medium every 2-3 days (24-well plates). • Growth medium: • DMEM (Life Technologies 21969035) L-glutamine, 2 mM (Life Technologies 25030024) • Penicillin 50 IU/ml streptomycin 50 μg/ml (Life Technologies 15070063) • Amphotericin B, 0.25 μg/ml (Sigma A2942) • Foetal calf serum, 10% v/v (Life Technologies 10106151).\n(§4) At high confluency, the cells were transferred into a differentiation medium for 2×48 hours. • Differentiation medium: • DMEM (Life Technologies 21969035) • L-glutamine, 2 mM (Life Technologies 25030024) • Penicillin 50 IU/ml streptomycin 50 μg/ml (Life Technologies 15070063) • Foetal calf serum, 10% v/v (Life Technologies 10106151), • Isobutylmethylxanthine, 0.5 mM (IBMX, Sigma 17018) • Insulin, 5 μg/ml (Sigma 11882) • Dexamethasone, 1 μM (Sigma D1756)\nAfter differentiation, the cells were transferred into DMEM medium+insulin (5 μg/ml final) for 72 hours and then into growth medium (DMEM/10% serum).\nThe differentiated cells were placed in test medium (MEM 100% (v/v), bicarbonate 1.87 mg/ml, glutamine 2 mM, delipidated bovine serum albumin 0.5% (w/v), penicillin/streptomycin 25 IU/ml/25 μg/ml) and were then treated with the test products or the references. After incubating at 37° C. for 1 h and 5% CO2, the culture supernatants were removed in order to assay the glycerol released.\nThe glycerol released into the culture medium was with a determined content of directly by measuring the fluorescence of the NADH produced in the following reaction sequence (according to Wieland). [drawing 1] Autofluorescence and quenching (absorption of the fluorescence) controls were carried out in order to determine possible interference of the products in this assay."}, "[2]": {"system": "Aquaporin adipose (AQPap) messenger", "experiment": "Relative expression of AQPap messenger by RT-Q-PCR in differentiated 3T3-L1 cells", "conditions": "for RE*AQP7 / AQP7/Actin % Control: 6 h; for RE*AQP7: n=2; for AQP7/Actin % Control: differentiated control = 100; for mRNA stimulation: summary", "description": "The test was carried out on differentiated 3T3-L1 cells obtained as described in Example 1.\nThe differentiated cells were placed beforehand in test medium for 24 hours and were then treated with the test products or the references. After incubating for 6 h at 37° C. and 5% CO2, the culture supernatants were removed, the cells were rinsed with a PBS solution and the cell layers were placed in Tri-Reagent (Sigma T9424) and then immediately frozen at −80° C.\nThe expression of the markers selected was evaluated by RT-Q-PCR with regard to the messenger RNAs extracted from the cells corresponding to each treatment.\nThe marker β-actin (M12481) was used as reference marker.\nThe operational stages are as follows: • Extraction of the total RNAs using Tri-Reagent according to the protocol recommended by the supplier. Then further extraction with chloroform and precipitation with isopropanol. • Removal of the traces of potentially contaminating DNA by treatment with the DNA-free system (Ambion). After monitoring the quality of the RNAs obtained, the three samples corresponding to each treatment were pooled. • Carrying out the reverse transcription reaction on the mRNA in the presence of the oligo(dT) primer and of the Superscript II (Gibco) enzyme. • Quantification by fluorescence of the synthesized cDNA and adjustment of the concentrations to 50 ng/μl. Further quantification of each cDNA, after final dilution, is carried out before the PCR reaction.\nThe PCR (polymerase chain reactions) reactions were carried out by quantitative PCR with the “Light Cycler” system (Roche Molecular Systems Inc.) and according to the procedures recommended by the supplier.\nThe incorporation of fluorescence into the amplified DNA is carried out continuously during the PCR cycles. This system makes it possible to obtain curves of measurement of the fluorescence as a function of the PCR cycles and to thus evaluate a value of relative expression for each marker.\nThe number of cycles is determined from the “exit” points of the fluorescence curves. For the same marker analysed, the later the sample exits (high cycle number), the lower the initial number of mRNA copies.\nThe RE (relative expression) value is expressed in arbitrary units according to the following formula: (1/2^number of cycles)×10^6\nResults: Effects of the various treatments on the relative expression of the Aquaporin adipose (AQPap) messenger. Results with respect to the amount of actin messenger (reference gene).\nRE=Relative Expression, expressed in arbitrary units (AU), n=2."}, "[3]": {"system": "differentiated 3T3-L1 cells", "experiment": "Colorimetric assay of glycerol released, Protocol 1", "conditions": "Protocol 1, 40 μM", "description": "as §1, §2, §3, §4\nAfter differentiation, the cells were transferred into DMEM medium+insulin (5 μg/ml final) for 72 hours and then into growth medium (DMEM/10% serum). […]"}, "[4]": {"system": "differentiated 3T3-L1 cells", "experiment": "Fluorescence assay of glycerol released, HgCl2 protocol (Protocol 3)", "conditions": "10 mM", "description": "The majority of mammalian aquaporins are inhibited by mercury and its salts, whereas chemical inhibitors of diffusion are unknown (P. Agre et al., J. of Physiology, 2002, 542.1). The cells used were mice preadipocytes of the 3T3-L1 line (40 000 cells/well). The cells were cultured until confluency in a growth medium, with a change in medium every 2-3 days (24-well plates). • Growth medium: • DMEM (Life Technologies 21969035) L-glutamine, 2 mM (Life Technologies 25030024) • Penicillin 50 IU/ml streptomycin 50 μg/ml (Life Technologies 15070063) • Amphotericin B, 0.25 μg/ml (Sigma A2942) • Foetal calf serum, 10% v/v (Life Technologies 10106151). […] After differentiation, the cells were transferred into DMEM medium+insulin (5 μg/ml final) for 72 hours and then into growth medium (DMEM/10% serum). […] The differentiated cells were placed in test medium for 24 h. The cells were subsequently placed in PBS buffer comprising or not comprising HgCl2 (30 μM final) for 5 minutes at 37° C. After treatment with HgCl2, the cells were washed twice in PBS and then placed in test medium comprising or not comprising the test products. The culture supernatants were subsequently removed in order to assay the glycerol released."}, "[5]": {"conditions": "Protocol 1 (Caophenol table), 40 μM"}}, "data": [{"compound": "CCCCCCCCCCC#CCSCC(=O)O", "note": "[(Tridec-2-ynylthio)acetic acid]", "values": [{"measurement": "Release of glycerol", "setting": "[1]; 0.16-4.0 μg/ml", "result": "No"}, {"measurement": "RE*AQP7", "setting": "[2]; 0.00032 mg/ml", "result": 0.912, "unit": "AU"}, {"measurement": "AQP7/Actin % Control", "setting": "[2]; 0.00032 mg/ml", "result": 130, "unit": "%"}, {"measurement": "RE*AQP7", "setting": "[2]; 0.0016 mg/ml", "result": 0.872, "unit": "AU"}, {"measurement": "AQP7/Actin % Control", "setting": "[2]; 0.0016 mg/ml", "result": 105, "unit": "%"}, {"measurement": "RE*AQP7", "setting": "[2]; 0.008 mg/ml", "result": 0.032, "unit": "AU"}, {"measurement": "AQP7/Actin % Control", "setting": "[2]; 0.008 mg/ml", "result": 174, "unit": "%"}, {"measurement": "mRNA stimulation", "setting": "[2]; 0.16-4.0 μg/ml", "result": "Yes"}]}, {"compound": "CNC[C@H](O)c1ccc(O)c(O)c1", "note": "[Epinephrine]", "values": [{"measurement": "% Control", "setting": "[1]; [5]", "result": 327, "unit": "%"}, {"measurement": "% theory, taking into account the quenching control", "setting": "[1]; [5]", "result": 327, "unit": "%"}, {"measurement": "Glycerol", "setting": "[1]; [5]", "result": 101.85, "unit": "µM"}, {"measurement": "% Control", "setting": "[1]; Protocol 1, 40 μM, 1 h", "result": 352, "unit": "%"}, {"measurement": "Glycerol", "setting": "[1]; Protocol 1, 40 μM, 1 h", "result": 117.57, "unit": "µM"}, {"measurement": "Glycerol", "setting": "[1]; differentiated preadipocytes, epinephrine 40 μM", "result": 149.5, "unit": "µM"}, {"measurement": "Δ%", "setting": "[1]; differentiated preadipocytes, epinephrine 40 μM, unstimulated differentiated = 100", "result": 383, "unit": "%"}, {"measurement": "% Control", "setting": "[3]", "result": 795, "unit": "%"}, {"measurement": "Glycerol", "setting": "[3]", "result": 449.74, "unit": "µM"}]}, {"compound": "CCCCCCCCSCC#CCSCC(=O)O", "note": "[{[4-(Octylthio)but-2-ynyl]thio}acetic acid]", "values": [{"measurement": "Release of glycerol", "setting": "[1]; 0.32-8.0 μg/ml", "result": "No"}, {"measurement": "RE*AQP7", "setting": "[2]; 0.00016 mg/ml", "result": 0.023, "unit": "AU"}, {"measurement": "AQP7/Actin % Control", "setting": "[2]; 0.00016 mg/ml", "result": 128, "unit": "%"}, {"measurement": "RE*AQP7", "setting": "[2]; 0.0008 mg/ml", "result": 0.022, "unit": "AU"}, {"measurement": "AQP7/Actin % Control", "setting": "[2]; 0.0008 mg/ml", "result": 153, "unit": "%"}, {"measurement": "RE*AQP7", "setting": "[2]; 0.004 mg/ml", "result": 0.020, "unit": "AU"}, {"measurement": "AQP7/Actin % Control", "setting": "[2]; 0.004 mg/ml", "result": 167, "unit": "%"}, {"measurement": "mRNA stimulation", "setting": "[2]; 0.32-8.0 μg/ml", "result": "Yes"}]}, {"compound": "OCCS", "note": "[β-Mercaptol]", "values": [{"measurement": "% theory, taking into account the quenching control", "setting": "[4]", "result": 155, "unit": "%"}, {"measurement": "Glycerol", "setting": "[4]", "result": 135.74, "unit": "µM"}, {"measurement": "% Control", "setting": "[4]; HgCl2 control = 100", "result": 155, "unit": "%"}]}, {"compound": "Aescin", "values": [{"measurement": "RE*AQP7", "setting": "[2]; 0.000128 mg/ml", "result": 0.034, "unit": "AU"}, {"measurement": "AQP7/Actin % Control", "setting": "[2]; 0.000128 mg/ml", "result": 134, "unit": "%"}, {"measurement": "RE*AQP7", "setting": "[2]; 0.00064 mg/ml", "result": 0.039, "unit": "AU"}, {"measurement": "AQP7/Actin % Control", "setting": "[2]; 0.00064 mg/ml", "result": 168, "unit": "%"}, {"measurement": "RE*AQP7", "setting": "[2]; 0.0032 mg/ml", "result": 0.043, "unit": "AU"}, {"measurement": "AQP7/Actin % Control", "setting": "[2]; 0.0032 mg/ml", "result": 164, "unit": "%"}, {"measurement": "mRNA stimulation", "setting": "[2]; 0.128-3.2 μg/ml", "result": "Yes"}]}]}
